Test results: patent US11473055B2, “Virus-free cell lines and methods for obtaining same” (Glycobac, LLC, priority 2015, dated 2022)

What was measured:
[1] = test system: Sf-rhabdovirus; assay: Sf-rhabdovirus RT-PCR/nested PCR of single Sf9 cell subclones isolated by limiting dilution and treated with antiviral drugs; type: cell-based, Spodoptera frugiperda; conditions: single Sf9 cell subclone, 10 μg/ml, about a month (FIG. 2B)
Protocol: Example 3. Exemplary method for obtaining an established Sf cell line characterized by a lack of virus. […] This exemplary embodiment comprised isolating single Sf9 cells by limiting dilution, then treating the isolated cell subclones with antiviral drugs. […] The cells were cultured for about a month with ad hoc amplification to produce progressively larger cultures and, after achieving the 25 cm^2 flask level, samples were tested for Sf-rhabdovirus contamination by PCR, as described in Example 4. A clone lacking Sf-rhabdovirus contamination (FIG. 2B) was transferred to media lacking antiviral drugs, designated Sf-RVN passage zero (PO) and, at P2, transferred to a shake-flask culture in serum-free ESF 921 medium and subsequently maintained in this culture medium and format.
Example 4. Sf-rhabdovirus-specific Reverse Transcription-PCR (RT-PCR)/nested PCR. […] One μL of each primary PCR (RT-PCR) was then used as the template for secondary PCR's (RT-PCR/nested PCR) under the same conditions, except the primers were nested Sf-rhabdovirus-specific primers Mono-1i (SEQ ID NO: 7) and Mono-2i (SEQ ID NO: 8).

[2] = test system: Tn-nodavirus; assay: Tn-nodavirus RT-PCR/nested PCR of single TN-368 cell subclones treated with ribavirin; type: cell-based, Trichoplusia ni; conditions: single TN-368 cell subclone, 200 μg/mL, about a month (FIG. 14)
Protocol: Example 15. Exemplary method for obtaining an established T. ni cell line that lacks virus. After discovering polyclonal TN-368 cell cultures treated with antiviral drug cocktails remained Tn-nodavirus-positive, we employed a disclosed method for obtaining a virus-free cell line. […] The first culture composition was cultured for about a month with ad hoc amplification to produce progressively larger cultures and, after achieving the 25 cm^2 flask level, samples were tested for Tn-nodavirus by RT-PCR, followed by nested PCR, as described in Example 16. […] The clone, designated Tn-NVN passage zero (PO), was adapted to serum-free ESF 921 medium and grown in suspension. The Tn-NVN cell line was subsequently maintained in this second culture composition and growth format.

[3] = test system: Sf-rhabdovirus

SMILES | Sf-rhabdovirus RNA by RT-PCR followed by nested PCR [1] | Tn-nodavirus RNA by RT-PCR followed by nested PCR [2] | Sf-rhabdovirus RNA by RT-PCR ([3]; polyclonal Sf9 cells, 100 μg/ml, about a month, still in presence of drug (FIG. 1A)) | Sf-rhabdovirus RNA by RT-PCR/nested PCR after transfer to drug-free medium ([3]; ribavirin-treated Sf9 cells transferred to culture medium lacking antiviral drugs (FIG. 1B))
O=c1cnn([C@@H]2O[C@H](CO)[C@@H](O)[C@H]2O)c(=O)[nH]1 [6-azauridine] | negative for Sf-rhabdovirus contamination | – | – | –
NC(=O)c1ncn([C@@H]2O[C@H](CO)[C@@H](O)[C@H]2O)n1 [ribavirin] | – | lacking Tn-nodavirus | no RT-PCR-detectable Sf-rhabdovirus | reverted to the Sf-rhabdovirus-positive phenotype
